This note sets out measurements from US20110033393A1, “Hydrazone Compounds and Their Use” (priority 2009, published 2011).

Each structure is given as a SMILES string.

The IC50 is the concentration that gives 50% inhibition.

The target of this test is T1, human TRPM5 ion channel (Homo sapiens, UniProt Q9NZQ8).
T1 sequence (Q9NZQ8 1-1165): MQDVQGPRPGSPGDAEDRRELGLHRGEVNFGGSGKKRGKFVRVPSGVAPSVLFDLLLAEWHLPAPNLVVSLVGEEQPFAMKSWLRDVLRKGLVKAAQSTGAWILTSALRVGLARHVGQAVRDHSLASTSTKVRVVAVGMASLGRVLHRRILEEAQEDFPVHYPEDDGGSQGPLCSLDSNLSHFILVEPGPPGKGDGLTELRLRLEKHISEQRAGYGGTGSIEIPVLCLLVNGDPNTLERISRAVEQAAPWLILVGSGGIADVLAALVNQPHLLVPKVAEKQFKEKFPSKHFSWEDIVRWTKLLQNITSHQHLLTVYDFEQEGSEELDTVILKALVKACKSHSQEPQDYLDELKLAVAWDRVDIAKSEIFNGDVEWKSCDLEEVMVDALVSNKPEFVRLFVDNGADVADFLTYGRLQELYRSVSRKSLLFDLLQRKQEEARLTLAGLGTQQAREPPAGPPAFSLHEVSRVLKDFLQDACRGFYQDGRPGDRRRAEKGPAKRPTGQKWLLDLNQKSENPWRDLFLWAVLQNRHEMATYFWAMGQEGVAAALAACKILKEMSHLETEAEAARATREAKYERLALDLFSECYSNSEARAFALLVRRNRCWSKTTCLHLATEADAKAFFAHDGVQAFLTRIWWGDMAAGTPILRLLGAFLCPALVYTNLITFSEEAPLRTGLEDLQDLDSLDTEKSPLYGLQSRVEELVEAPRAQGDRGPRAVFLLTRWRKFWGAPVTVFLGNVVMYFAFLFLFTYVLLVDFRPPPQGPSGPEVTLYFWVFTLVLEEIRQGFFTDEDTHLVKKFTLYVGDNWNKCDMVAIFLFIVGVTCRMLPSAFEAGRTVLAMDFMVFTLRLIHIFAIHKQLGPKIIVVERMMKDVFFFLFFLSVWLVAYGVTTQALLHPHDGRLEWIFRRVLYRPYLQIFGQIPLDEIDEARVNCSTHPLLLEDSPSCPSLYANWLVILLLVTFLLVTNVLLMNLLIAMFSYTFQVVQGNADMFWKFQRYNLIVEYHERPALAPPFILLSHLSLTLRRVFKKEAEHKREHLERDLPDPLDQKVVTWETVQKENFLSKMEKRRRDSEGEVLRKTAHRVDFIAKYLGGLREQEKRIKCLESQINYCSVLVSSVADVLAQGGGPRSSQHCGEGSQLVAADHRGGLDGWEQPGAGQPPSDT
Description: FLIPR-based assay for membrane potential and calcium mobilization (TRPM5 inhibiting activity). Particulars: live cells, 30° C., read-out: hTrpM5 IC50. Type of test: cell-based. The protocol: The activity of compounds of the present invention on human TRPM5 ion channel was measured using the FLIPR-based (fluorescent imaging plate reader) assay for membrane potential and calcium mobilization described in U.S. Patent Application Publication No. 2008/0249189 A1 in live cells, wherein the assay is performed at 30° C. Determinations of affinity and efficacy were derived from measurements of TRPM5 activity over a range of compound concentrations. The concentration range was achieved by 10 serial dilutions (either 2-fold or 3-fold decrements) from a maximum concentration of no greater that 100 μM. Curver fitting was performed on the resulting data to yield concentration-effect functions, from which the half-maximal inhibitory concentration (IC50) was derived for all the tested compounds. The IC50 values were considered to be accurate reflections of affinity between the compounds and TRPM5.
Representative compounds of the present invention have been tested in the FLIPR assay for TRPM5 inhibiting activity, which is described in detail above.
In general terms: Calcium assays in cells follow changes in intracellular calcium, usually with a dye or a luminescent sensor.
Take `COc1cccc(CCC(=O)N/N=C/c2cc(C)c3ncccc3c2)n1` [Example 26, 3-(6-Methoxypyridin-2-yl)-N′-((8-methylquinolin-6-yl)methylene)propanehydrazide]: the IC50 was determined as 2000 nM.

With `COc1ccc(C=NNC(=O)[C@@H]2C[C@H]2c2cnc3ccccc3c2)cc1OC` (relative stereo) [Example 38, trans-N′-(3,4-Dimethoxybenzylidene)-2-(quinolin-3-yl)cyclopropanecarbohydrazide], the IC50 was 610 nM. On to `COc1ccc(/C=N/NC(=O)CSc2ccccc2)cc1OC` [Example 55, N′-(3,4-dimethoxybenzylidene)-2-(phenylthio)acetohydrazide], for which the IC50 came out at 660 nM.

For `Cc1cn(CCC(=O)N/N=C/c2cc(C)c3ncccc3c2)c2ccccc12` [Example 3, 3-(3-Methyl-1H-indol-1-yl)-N′-((8-methylquinolin-6-yl)methylene)propanehydrazide], the IC50 was 30 nM.

On to `COc1ccc(/C=N/NC(=O)CSc2cccc(CO)c2)cc1OC` [Example 67, N′-(3,4-dimethoxybenzylidene)-2-(3-(hydroxymethyl)phenylthio)-acetohydrazide], for which the IC50 is over 30000 nM.

As for `Cc1cn(CCC(=O)N/N=C/c2ccc3nccnc3c2)c2ccccc12` [Example 32, 3-(3-Methyl-1H-indol-1-yl)-N′-(quinoxalin-6-ylmethylene)propanehydrazide], the IC50 was determined as 2200 nM. With `COc1ccc(/C=N/NC(=O)CCn2ccc3c(C)cccc32)cc1OC` [Example 57, N′-(3,4-dimethoxybenzylidene)-3-(4-methyl-1H-indol-1-yl)propanehydrazide], the half-inhibitory concentration (IC50) is 12 nM. The figure for `COc1cc(/C=N/NC(=O)CCn2cc(C)c3c(C)cccc32)ccc1OCc1ccccc1` [Example 12, N′-(4-(Benzyloxy)-3-methoxybenzylidene)-3-(3,4-dimethyl-1H-indol-1-yl)propanehydrazide] is 80 nM. Turning to `COc1ccc([C@@H]2C[C@H]2C(=O)N/N=C/c2cc(C)c3ncccc3c2)cn1` (relative stereo) [Example 41, trans-2-(6-Methoxypyridin-3-yl)-N′-((8-methylquinolin-6-yl)methylene)cyclopropanecarbohydrazide], the IC50 is 5000 nM. In the case of `COc1cc(/C=N/NC(=O)[C@@H]2C[C@H]2c2ccccc2)cc2cccnc12` (relative stereo) [Example 22, trans-N′-((8-Methoxyquinolin-6-yl)methylene)-2-phenylcyclopropanecarbohydrazide], the IC50 is 90 nM. `COc1ccc(/C=N/NC(=O)CCn2cc(C)c3c(OC)cccc32)cc1OC` [Example 46, N′-(3,4-Dimethoxybenzylidene)-3-(4-methoxy-3-methyl-1H-indol-1-yl)propanehydrazide]: the IC50 is 6 nM.

`Cc1cnc2ccc(/C=N/NC(=O)CCn3cc(C)c4ccccc43)cc2c1` [Example 61, 3-(3-methyl-1H-indol-1-yl)-N′-((3-methylquinolin-6-yl)methylene)-propanehydrazide]: the half-maximal inhibitory concentration (IC50) is 210 nM. Take `COc1cc(/C=N/NC(=O)CCn2cc(C)c3c(C)cccc32)ccc1OCc1ccncc1` [Example 18, 3-(3,4-Dimethyl-1H-indol-1-yl)-N′-(3-methoxy-4-(pyridin-4-ylmethoxy)benzylidene)propanehydrazide]: the IC50 was 46 nM. The figure for `Cc1cc(/C=N/NC(=O)CSc2cccc(Cl)c2)cc2cccnc12` [Example 35, 2-(3-Chlorophenylthio)-N′-((8-methylquinolin-6-yl)methylene)acetohydrazide] is 830 nM; for `COc1ccc(/C=N/NC(=O)[C@@H]2C[C@H]2c2ccc3ccccc3n2)cc1OC` (relative stereo) [Example 36, trans-N′-(3,4-Dimethoxybenzylidene)-2-(quinolin-2-yl)cyclopropanecarbohydrazide] it is 930 nM; for `O=C(N/N=C/c1cc(Cl)c2ncccc2c1)[C@@H]1C[C@H]1c1ccccc1` (relative stereo) [Example 25, trans-N′-((8-Chloroquinolin-6-yl)methylene)-2-phenylcyclopropanecarbohydrazide] it is 340 nM. Take `O=C(N/N=C/c1cc(F)c2ncccc2c1)C1CC1c1ccccc1` (stereo not drawn) [Example 44, trans-N′-((8-Fluoroquinolin-6-yl)methylene)-2-phenylcyclopropanecarbohydrazide]: the IC50 amounted to 550 nM. As for `COc1cc(/C=N/NC(=O)CCn2cc(C)c3ccccc32)ccc1OCCCO` [Example 4, N′-(4-(3-Hydroxypropoxy)-3-methoxybenzylidene)-3-(3-methyl-1H-indol-1-yl)propanehydrazide], the IC50 was 500 nM. As to `COc1ccc(/C=N/NC(=O)CCc2cn(C)c3ccccc23)cc1OC` [Example 2, N′-(3,4-dimethoxybenzylidene)-3-(1-methyl-1H-indol-3-yl)propanehydrazide], the IC50 was found to be 51 nM. In the case of `COc1ccc(/C=N/NC(=O)[C@@H]2C[C@H]2c2cccc(C)n2)cc1OC` (relative stereo) [Example 37, trans-N′-(3,4-Dimethoxybenzylidene)-2-(6-methylpyridin-2-yl)cyclopropanecarbohydrazide], the IC50 was found to be 3200 nM. In the case of `COc1ccc(/C=N/N(C)C(=O)C2CC2c2ccccc2)cc1OC` (stereo not drawn) [Example 9, trans-N′-(3,4-Dimethoxybenzylidene)-N-methyl-2-phenylcyclopropanecarbohydrazide], the IC50 was found to be 5000 nM.

In the case of `COc1ccnc2ccc(/C=N/NC(=O)CCn3cc(C)c4ccccc43)cc12` [Example 63, N′-((4-methoxyquinolin-6-yl)methylene)-3-(3-methyl-1H-indol-1-yl)propanehydrazide], the IC50 is 120 nM. Turning to `Cc1cn(CCC(=O)NN=Cc2ccc3nnccc3c2)c2ccccc12` [Example 34, N′-(Cinnolin-6-ylmethylene)-3-(3-methyl-1H-indol-1-yl)propanehydrazide], the IC50 was determined as 430 nM.

Take `COc1cc(/C=N/NC(=O)CCn2cc(C)c3c(C)cccc32)cc(Cl)c1OC` [Example 15, N′-(3-Chloro-4,5-dimethoxybenzylidene)-3-(3,4-dimethyl-1H-indol-1-yl)propanehydrazide]: the half-maximal inhibitory concentration (IC50) was 38 nM.

For the compound `COc1cc(/C=N/NC(=O)CCn2cc(C)c3c(C)cccc32)ccc1OCc1ccccn1` [Example 13, 3-(3,4-Dimethyl-1H-indol-1-yl)-N′-(3-methoxy-4-(pyridin-2-ylmethoxy)benzylidene)propanehydrazide], the IC50 is 66 nM. As for `Cc1cc(C=NNC(=O)C2CC2c2ccccc2)cc2cccnc12` (single isomer, unassigned) [11 (E1), trans-N′-((8-Methylquinolin-6-yl)methylene)-2-phenylcyclopropanecarbohydrazide, E1 enantiomer], the IC50 was over 10000 nM. For `COc1ccc(/C=N/NC(=O)CCn2cc(C)c3c(C)cccc32)cc1OC` [Example 7, N′-(3,4-Dimethoxybenzylidene)-3-(3,4-dimethyl-1H-indol-1-yl)propanehydrazide], the IC50 is 1.8 nM. For `Cc1cn(CCC(=O)N/N=C/c2ccc3c(c2)OCCN3C)c2ccccc12` [Example 60, 3-(3-methyl-1H-indol-1-yl)-N′-((4-methyl-3,4-dihydro-2H-benzo[b][1,4]-oxazin-7-yl)methylene)propanehydrazide] the value was 750 nM; for `Cc1cc(C=NNC(=O)C2CC2c2ccccc2)cc2cccnc12` (single isomer, unassigned) [11 (E2), trans-N′-((8-Methylquinolin-6-yl)methylene)-2-phenylcyclopropanecarbohydrazide, E2 enantiomer], 240 nM; for `COc1cnc(/C=N/NC(=O)C(C)Sc2cccc(Cl)c2)cc1OC` (stereo not drawn) [Example 53, 2-(3-Chlorophenylthio)-N′-((4,5-dimethoxypyridin-2-yl)methylene)propanehydrazide], over 30000 nM.
